Source: US20240067702A1, “LACTAM-MODIFIED P[…]” (DONGBAO PURPLE STAR (HANGZHOU) BIOPHARMACEUTICAL CO., LTD., priority 2020, published 2024)
*1 amine or outer side, *2 acyl side, *3 side chain or, on linkers, in order; H or OH if unused. Where a SMILES comes first, the peptide text is derived from it. Bridges are numbered along the chain shown (N, C = ends). Side-chain parts run from the residue outwards. [ ]: non-standard residue; d: D form. The star is where a group is joined. C20 diacid = O=C(O)CCCCCCCCCCCCCCCCCCC(=O)*; C18 diacid = O=C(O)CCCCCCCCCCCCCCCCC(=O)*; γGlu = O=C(O)[C@H](CCC(=O)[*:2])N[*:1]; AEEA = NCCOCCOCC(=O)O; Aib = CC(C)(N)C(=O)O

What was measured:
GLP-1R = target: T1, GLP-1R (Homo sapiens, UniProt P43220); assay: GLP-1R agonist activity test in vitro (cAMP assay); format: cell-based; details: HEK293 host cell
T1 construct: host or cells: HEK293
Description: (§1) The cell strains were constructed by Shanghai WuXi AppTec.
(§2) The test compound was serially diluted 4-fold with 10 points. The initial concentration was 30 μM, and the dilution was completed with Bravo.
(§3) 1) 100 nL of the compound was transferred to OptiPlate-384 plate using Echo.
(§4) 7) The GLP-1R/GIPR cell concentration was diluted to 2.0*10^5/mL with the experimental buffer.
(§5) 8) […] of the diluted cell suspension was transferred into the OptiPlate-384 plate.
(§6) 9) The diluted cell suspension was incubated at room temperature for 30 minutes.
(§7) 2) 10 μL of cAMP detection reagent was added.
(§8) 3) The OptiPlate-384 plate was covered with TopSeal-A film and incubated at room temperature for 60 minutes.
(§9) TopSeal-A was removed and read in EnVision.

GIPR = target: T2, GIPR (Homo sapiens, UniProt P48546); assay: GIPR agonist activity test in vitro (cAMP assay); format: cell-based; details: CHO host cell
T2 construct: host or cells: CHO
T2 sequence (P48546 22-466): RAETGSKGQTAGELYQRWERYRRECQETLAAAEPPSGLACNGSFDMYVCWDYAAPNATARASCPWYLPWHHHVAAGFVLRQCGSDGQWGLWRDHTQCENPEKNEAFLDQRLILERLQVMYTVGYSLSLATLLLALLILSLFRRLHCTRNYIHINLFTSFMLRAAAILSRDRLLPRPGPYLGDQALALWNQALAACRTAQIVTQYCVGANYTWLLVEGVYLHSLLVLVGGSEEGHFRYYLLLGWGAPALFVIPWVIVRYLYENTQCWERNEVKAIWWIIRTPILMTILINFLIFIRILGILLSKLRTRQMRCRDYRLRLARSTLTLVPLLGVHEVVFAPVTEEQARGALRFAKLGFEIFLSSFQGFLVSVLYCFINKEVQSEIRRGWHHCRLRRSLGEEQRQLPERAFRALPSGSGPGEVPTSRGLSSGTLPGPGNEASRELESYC
Description: as §1, §2, §3, §4, §5, §6, §7, §8, §9

[1] = GLP-IR Agonist Activity EC50 (−) 1% HSA, without 1% HSA
[2] = GIPR Agonist Activity EC50 (−) 1% HSA, without 1% HSA

T1 sequence (P43220 24-463): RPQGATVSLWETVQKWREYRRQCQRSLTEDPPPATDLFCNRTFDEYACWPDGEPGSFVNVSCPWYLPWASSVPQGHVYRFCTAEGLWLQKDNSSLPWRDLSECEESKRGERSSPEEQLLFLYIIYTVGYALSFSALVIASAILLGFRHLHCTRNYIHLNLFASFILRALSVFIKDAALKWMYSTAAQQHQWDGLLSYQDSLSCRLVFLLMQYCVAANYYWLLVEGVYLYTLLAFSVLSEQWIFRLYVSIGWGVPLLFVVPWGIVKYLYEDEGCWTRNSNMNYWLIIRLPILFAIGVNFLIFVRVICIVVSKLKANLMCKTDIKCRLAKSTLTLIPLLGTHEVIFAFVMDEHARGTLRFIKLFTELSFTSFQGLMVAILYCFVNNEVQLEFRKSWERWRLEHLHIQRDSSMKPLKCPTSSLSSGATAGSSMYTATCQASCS

Compound	EC50 (GLP-1R; [1]) [pM]	EC50 (GIPR; [2]) [pM]	EC50 (GLP-1R; GLP-IR Agonist Activity EC50 (+) 1% HSA, with 1% HSA) [pM]	EC50 (GIPR; GIPR Agonist Activity EC50 (+) 1% HSA, with 1% HSA) [pM]
CC[C@H](C)[C@H](NC(=O)[C@H](CC(C)C)NC(=O)[C@H](Cc1c[nH]c2ccccc12)NC(=O)[C@@H]1CCC(=O)NCCCC[C@H](NC(=O)[C@H](CCC(N)=O)NC(=O)[C@H](C)NC(=O)[C@H](CCCCNC(=O)COCCOCCNC(=O)COCCOCCNC(=O)CC[C@H](NC(=O)CC[C@H](NC(=O)CCCCCCCCCCCCCCCCC(=O)O)C(=O)O)C(=O)O)NC(=O)[C@H](CCCCN)NC(=O)[C@H](CC(=O)O)NC(=O)[C@H](CC(C)C)NC(=O)C(C)(C)NC(=O)[C@@H](NC(=O)[C@H](CO)NC(=O)[C@H](Cc2ccc(O)cc2)NC(=O)[C@H](CC(=O)O)NC(=O)[C@H](CO)NC(=O)[C@@H](NC(=O)[C@H](Cc2ccccc2)NC(=O)[C@@H](NC(=O)CNC(=O)[C@H](CCC(=O)O)NC(=O)C(C)(C)NC(=O)[C@@H](N)Cc2ccc(O)cc2)[C@@H](C)O)[C@@H](C)O)[C@@H](C)CC)C(=O)N[C@@H](C)C(=O)N[C@@H](Cc2ccccc2)C(=O)N[C@@H](C(C)C)C(=O)N1)C(=O)N[C@@H](C)C(=O)NCC(=O)NCC(=O)N1CCC[C@H]1C(=O)N[C@@H](CO)C(=O)N[C@@H](CO)C(=O)NCC(=O)N[C@@H](C)C(=O)N1CCC[C@H]1C(=O)N1CCC[C@H]1C(=O)N1CCC[C@H]1C(=O)N[C@@H](CO)C(N)=O [WX-003] (H-Y[Aib]EGTFTSDYSI[Aib]LDKK([AEEA-AEEA-γGlu-γGlu-C18 diacid])AQKAFVEWLIAGGPSSGAPPPS-NH2; lactam 20-24)	90	300		
CC[C@H](C)[C@H](NC(=O)[C@H](CO)NC(=O)[C@H](Cc1ccc(O)cc1)NC(=O)[C@H](CC(=O)O)NC(=O)[C@H](CO)NC(=O)[C@@H](NC(=O)[C@H](Cc1ccccc1)NC(=O)[C@@H](NC(=O)CNC(=O)[C@H](CCC(=O)O)NC(=O)C(C)(C)NC(=O)[C@@H](N)Cc1ccc(O)cc1)[C@@H](C)O)[C@@H](C)O)C(=O)NC(C)(C)C(=O)N[C@@H](CC(C)C)C(=O)N[C@@H](CC(=O)O)C(=O)N[C@@H](CCCCN)C(=O)N[C@@H](CCCCNC(=O)COCCOCCNC(=O)COCCOCCNC(=O)CC[C@H](NC(=O)CCCCCCCCCCCCCCCCCCC(=O)O)C(=O)O)C(=O)N[C@@H](C)C(=O)N[C@@H](CCC(N)=O)C(=O)N[C@H]1CCCCNC(=O)CC[C@@H](C(=O)N[C@@H](Cc2c[nH]c3ccccc23)C(=O)N[C@@H](CC(C)C)C(=O)N[C@@H](CC(C)C)C(=O)N[C@@H](C)C(=O)NCC(=O)NCC(=O)N2CCC[C@H]2C(=O)N[C@@H](CO)C(=O)N[C@@H](CO)C(=O)NCC(=O)N[C@@H](C)C(=O)N2CCC[C@H]2C(=O)N2CCC[C@H]2C(=O)N2CCC[C@H]2C(=O)N[C@@H](CO)C(N)=O)NC(=O)[C@H](C(C)C)NC(=O)[C@H](Cc2ccccc2)NC(=O)[C@H](C)NC1=O [WX-007] (H-Y[Aib]EGTFTSDYSI[Aib]LDKK([AEEA-AEEA-γGlu-C20 diacid])AQKAFVEWLLAGGPSSGAPPPS-NH2; lactam 20-24)	140	130		
CC[C@H](C)[C@H](NC(=O)[C@H](CC(C)C)NC(=O)[C@H](Cc1c[nH]c2ccccc12)NC(=O)[C@H](CCCCNC(=O)COCCOCCNC(=O)COCCOCCNC(=O)CC[C@H](NC(=O)CCCCCCCCCCCCCCCCCCC(=O)O)C(=O)O)NC(=O)[C@@H](NC(=O)[C@H](Cc1ccccc1)NC(=O)[C@H](C)NC(=O)[C@@H]1CCCCNC(=O)CC[C@H](NC(=O)[C@H](CCCCN)NC(=O)[C@H](CC(=O)O)NC(=O)[C@H](CC(C)C)NC(=O)C(C)(C)NC(=O)[C@@H](NC(=O)[C@H](CO)NC(=O)[C@H](Cc2ccc(O)cc2)NC(=O)[C@H](CC(=O)O)NC(=O)[C@H](CO)NC(=O)[C@@H](NC(=O)[C@H](Cc2ccccc2)NC(=O)[C@@H](NC(=O)CNC(=O)[C@H](CCC(=O)O)NC(=O)C(C)(C)NC(=O)[C@@H](N)Cc2ccc(O)cc2)[C@@H](C)O)[C@@H](C)O)[C@@H](C)CC)C(=O)N[C@@H](C)C(=O)N[C@@H](CCC(N)=O)C(=O)N1)C(C)C)C(=O)N[C@@H](C)C(=O)NCC(=O)NCC(=O)N1CCC[C@H]1C(=O)N[C@@H](CO)C(=O)N[C@@H](CO)C(=O)NCC(=O)N[C@@H](C)C(=O)N1CCC[C@H]1C(=O)N1CCC[C@H]1C(=O)N1CCC[C@H]1C(=O)N[C@@H](CO)C(N)=O [WX-008] (H-Y[Aib]EGTFTSDYSI[Aib]LDKEAQKAFVK([AEEA-AEEA-γGlu-C20 diacid])WLIAGGPSSGAPPPS-NH2; lactam 17-20)	80	320		
CC[C@H](C)[C@H](NC(=O)[C@@H]1CCCCNC(=O)CC[C@H](NC(=O)[C@@H](NC(=O)[C@H](CO)NC(=O)[C@H](Cc2ccc(O)cc2)NC(=O)[C@H](CC(=O)O)NC(=O)[C@H](CO)NC(=O)[C@@H](NC(=O)[C@H](Cc2ccccc2)NC(=O)[C@@H](NC(=O)CNC(=O)[C@H](CCC(=O)O)NC(=O)C(C)(C)NC(=O)[C@@H](N)Cc2ccc(O)cc2)[C@@H](C)O)[C@@H](C)O)[C@@H](C)CC)C(=O)N[C@@H](CC(C)C)C(=O)N[C@@H](CC(=O)O)C(=O)N1)C(=O)N[C@@H](C)C(=O)N[C@@H](CCC(N)=O)C(=O)N[C@@H](CCCCNC(=O)COCCOCCNC(=O)COCCOCCNC(=O)CC[C@H](NC(=O)CCCCCCCCCCCCCCCCCCC(=O)O)C(=O)O)C(=O)N[C@@H](C)C(=O)N[C@@H](Cc1ccccc1)C(=O)N[C@H](C(=O)N[C@@H](CCC(N)=O)C(=O)N[C@@H](Cc1c[nH]c2ccccc12)C(=O)N[C@@H](CC(C)C)C(=O)N[C@H](C(=O)N[C@@H](C)C(=O)NCC(=O)NCC(=O)N1CCC[C@H]1C(=O)N[C@@H](CO)C(=O)N[C@@H](CO)C(=O)NCC(=O)N[C@@H](C)C(=O)N1CCC[C@H]1C(=O)N1CCC[C@H]1C(=O)N1CCC[C@H]1C(=O)N[C@@H](CO)C(N)=O)[C@@H](C)CC)C(C)C [WX-010] (H-Y[Aib]EGTFTSDYSIELDKIAQK([AEEA-AEEA-γGlu-C20 diacid])AFVQWLIAGGPSSGAPPPS-NH2; lactam 13-16)	34.5	11900	34000	443000
